Reference: PMC467046, “Computational and spectroscopic insight into the binding of citral with human transferrin: Targeting neurodegenerative diseases” (Heliyon, 2024)

Biological target: T1, human transferrin (htf) (Homo sapiens, UniProt P02787)
T1 construct: gene TF; single-chain glycoprotein of 679 amino acids (mature)
Experiment: intrinsic fluorescence quenching, modified Stern-Volmer plot
Format: binding
Settings: 298 K; 4 uM htf, 0-8 uM citral; excitation 280 nm; double-log
Description: intrinsic fluorescence quenching, modified Stern-Volmer plot on human transferrin (htf)

T1 sequence (P02787 20-698): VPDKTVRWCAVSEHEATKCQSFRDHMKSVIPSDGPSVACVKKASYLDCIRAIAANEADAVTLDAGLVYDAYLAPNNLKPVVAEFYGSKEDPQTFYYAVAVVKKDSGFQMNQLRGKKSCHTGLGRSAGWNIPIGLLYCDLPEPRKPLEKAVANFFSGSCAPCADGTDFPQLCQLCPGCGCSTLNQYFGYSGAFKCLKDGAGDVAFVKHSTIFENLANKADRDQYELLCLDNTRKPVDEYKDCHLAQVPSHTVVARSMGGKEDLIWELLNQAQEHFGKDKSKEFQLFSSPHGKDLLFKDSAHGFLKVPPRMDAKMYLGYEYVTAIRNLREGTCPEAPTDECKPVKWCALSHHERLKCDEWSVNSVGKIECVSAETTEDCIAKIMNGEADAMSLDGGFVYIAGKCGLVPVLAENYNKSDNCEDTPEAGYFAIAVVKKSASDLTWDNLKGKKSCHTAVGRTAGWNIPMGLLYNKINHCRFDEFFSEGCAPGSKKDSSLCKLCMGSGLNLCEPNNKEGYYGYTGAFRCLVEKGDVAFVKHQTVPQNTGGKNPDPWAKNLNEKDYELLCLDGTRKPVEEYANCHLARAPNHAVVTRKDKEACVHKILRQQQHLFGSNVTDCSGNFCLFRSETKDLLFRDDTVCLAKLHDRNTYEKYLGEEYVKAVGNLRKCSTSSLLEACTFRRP

SMILES: CC(C)=CCCC(C)=CC=O [citral]
- K 10^6M^-1: 0.82 10^6 M^-1
